PubChem BioAssay AID330 (DTP/NCI, 2004)
Where “and” joins values, the source holds several entries; their conditions need not be identical. Identical values can stand only once. Toxic doses and inconclusive results are not listed. Rule for the calls: active = survival T/C of 150% or more; inactive = T/C below 125% in these data. Peptide text beside a SMILES is read from it.

System: P388 leukemia ip, CD2F1 mice, survival T/C
Test: NCI In Vivo Anticancer Drug Screen. Data for tumor model P388 Leukemia (intraperitoneal) in CD2F1 (CDF1) mice
Conditions: endpoint: median survival time, higher = longer survival
Outline: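 Mice carrying the transplanted tumor received test compound or vehicle. Survival was recorded in each group, and the value is the treated-group measurement divided by that of the vehicle-treated control group.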

[1] = dose: 60.0 mg/kg/injection, schedule: Q01DX005 (ip), vehicle: saline
[2] = dose: 120.0 mg/kg/injection, schedule: Q01DX005 (ip), vehicle: saline
[3] = dose: 240.0 mg/kg/injection, schedule: Q01DX005 (ip), vehicle: saline
[4] = dose: 50.0 mg/kg/injection, schedule: Q01DX005 (ip), vehicle: saline with Tween-80
[5] = dose: 100.0 mg/kg/injection, schedule: Q01DX005 (ip), vehicle: saline with Tween-80
[6] = dose: 200.0 mg/kg/injection, schedule: Q01DX005 (ip), vehicle: saline with Tween-80
[7] = dose: 50.0 mg/kg/injection, schedule: Q01DX009 (ip), vehicle: Klucel (hydroxypropylcellulose) (HPC)
[8] = dose: 100.0 mg/kg/injection, schedule: Q01DX009 (ip), vehicle: Klucel (hydroxypropylcellulose) (HPC)
[9] = dose: 60.0 mg/kg/injection, schedule: Q01DX005 (ip), vehicle: Klucel (hydroxypropylcellulose) (HPC)
[10] = dose: 50.0 mg/kg/injection, schedule: Q01DX009 (ip), vehicle: saline with Tween-80
[11] = dose: 100.0 mg/kg/injection, schedule: Q04DX003 (ip), vehicle: saline with Tween-80
[12] = dose: 120.0 mg/kg/injection, schedule: Q01DX005 (ip), vehicle: Klucel (hydroxypropylcellulose) (HPC)

Measured: T/C

C/C(=N\N)c1cnc(N)nc1C
inactive: [1] 101 % of control | [2] 107 % of control | [3] 100 % of control

COc1cc(O)ccc1/C=C/C(=O)c1ccc(OC2OC(CO)C(O)C(O)C2O)cc1 (stereo not drawn)
inactive: dose: 100.0 mg/kg/injection, schedule: Q04DX002 (ip), vehicle: saline with Tween-80 98 % of control | dose: 200.0 mg/kg/injection, schedule: Q04DX002 (ip), vehicle: saline with Tween-80 105 % of control | dose: 400.0 mg/kg/injection, schedule: Q04DX002 (ip), vehicle: saline with Tween-80 108 % of control

CCOC(=O)Nc1cc2c(c(N)n1)N=C(c1ccc(C)cc1)CN2
inactive: dose: 1.0 mg/kg/injection, schedule: Q01DX005 (ip), vehicle: saline with Tween-80 109 % of control | dose: 3.0 mg/kg/injection, schedule: Q01DX005 (ip), vehicle: saline with Tween-80 109 % of control | dose: 6.0 mg/kg/injection, schedule: Q01DX005 (ip), vehicle: saline with Tween-80 121 % of control

O=C1NC(O)c2cccc([N+](=O)[O-])c2O1 (stereo not drawn)
inactive: [4] 100 % of control | [5] 105 % of control | [6] 110 % of control

CCc1c(CO)c(CO)c(-c2ccccc2)n1CCn1c(CC)c(CO)c(CO)c1-c1ccccc1
inactive: dose: 100.0 mg/kg/injection, schedule: Q01DX001 (ip), vehicle: saline with Tween-80 96 % of control | dose: 200.0 mg/kg/injection, schedule: Q01DX001 (ip), vehicle: saline with Tween-80 88 % of control | dose: 400.0 mg/kg/injection, schedule: Q01DX001 (ip), vehicle: saline with Tween-80 96 % of control

Cc1nnc(SCC2=C(C(=O)O)N3C(=O)C(NC(=O)Cn4cnnn4)C3SC2)s1 (stereo not drawn)
inactive: dose: 25.0 mg/kg/injection, schedule: Q01DX009 (ip), vehicle: saline 112 % of control | dose: 400.0 mg/kg/injection, schedule: Q01DX009 (ip), vehicle: saline 112 % of control

O=C(O)CCCCCCCCCCNC(=O)CCl
inactive: [7] 88 % of control | [8] 91 % of control

NC(Cc1cnc[nH]1)C(=O)N1CCCC1C(=O)NC(CCC(=O)O)C(=O)O (stereo not drawn) (H-His-Pro-Glu-OH; configuration not given here)
inactive: dose: 7.5 mg/kg/injection, schedule: Q01DX009 (ip), vehicle: saline 102 % of control | dose: 15.0 mg/kg/injection, schedule: Q01DX009 (ip), vehicle: saline 100 % of control | dose: 30.0 mg/kg/injection, schedule: Q01DX009 (ip), vehicle: saline 109 % of control

CC(c1ccc(Cl)cc1)N(CCN(C)C)c1ccccn1 (stereo not drawn)
inactive: dose: 15.0 mg/kg/injection, schedule: Q01DX005 (ip), vehicle: Klucel (hydroxypropylcellulose) (HPC) 103 % of control | dose: 30.0 mg/kg/injection, schedule: Q01DX005 (ip), vehicle: Klucel (hydroxypropylcellulose) (HPC) 104 % of control | [9] 111 % of control and 95 % of control

CC(=O)OC1CC2C(C)(C)C(=O)C3OC3C2(C)C2CCC3(C)C(c4ccoc4)C(=O)C4OC43C12C (stereo not drawn)
inactive: dose: 0.38 mg/kg/injection, schedule: Q01DX005 (ip), vehicle: Klucel (hydroxypropylcellulose) (HPC) 100 % of control | dose: 0.75 mg/kg/injection, schedule: Q01DX005 (ip), vehicle: Klucel (hydroxypropylcellulose) (HPC) 100 % of control | dose: 1.5 mg/kg/injection, schedule: Q01DX005 (ip), vehicle: Klucel (hydroxypropylcellulose) (HPC) 100 % of control | dose: 3.0 mg/kg/injection, schedule: Q01DX005 (ip), vehicle: Klucel (hydroxypropylcellulose) (HPC) 100 % of control | dose: 6.0 mg/kg/injection, schedule: Q01DX005 (ip), vehicle: Klucel (hydroxypropylcellulose) (HPC) 106 % of control

O=C(Oc1cc([N+](=O)[O-])cc([N+](=O)[O-])c1)C(c1ccccc1)c1ccccc1
inactive: dose: 12.5 mg/kg/injection, schedule: Q01DX009 (ip), vehicle: saline with Tween-80 106 % of control | dose: 25.0 mg/kg/injection, schedule: Q01DX009 (ip), vehicle: saline with Tween-80 112 % of control | [10] 118 % of control

CC(C)(C)C1=CC(N2CCOCC2)(C(C)(C)C)C=C(C(C)(C)C)C1=O
inactive: [4] 94 % of control | [5] 103 % of control | [6] 94 % of control

O=c1[nH]c2ccc(Cl)cc2[nH]c1=O
inactive: [4] 99 % of control | [5] 100 % of control | [6] 94 % of control

Nc1nnc2nc(CC(=O)Cc3ccccc3)c(CC(=O)Cc3ccccc3)nn12
inactive: [1] 101 % of control | [2] 100 % of control | [3] 100 % of control

N#C/C(N)=C(\C#N)N=c1c(-c2ccccc2)c1-c1ccccc1
inactive: dose: 50.0 mg/kg/injection, schedule: Q01DX005 (ip), vehicle: Klucel (hydroxypropylcellulose) (HPC) 102 % of control and 103 % of control | dose: 100.0 mg/kg/injection, schedule: Q01DX005 (ip), vehicle: Klucel (hydroxypropylcellulose) (HPC) 103 % of control and 113 % of control | dose: 200.0 mg/kg/injection, schedule: Q01DX005 (ip), vehicle: Klucel (hydroxypropylcellulose) (HPC) 109 % of control and 122 % of control

NC(=O)N/N=C1\CSCc2ccccc21
inactive: dose: 25.0 mg/kg/injection, schedule: Q01DX009 (ip), vehicle: other 93 % of control | dose: 50.0 mg/kg/injection, schedule: Q01DX009 (ip), vehicle: other 92 % of control | dose: 100.0 mg/kg/injection, schedule: Q01DX009 (ip), vehicle: other 93 % of control | dose: 200.0 mg/kg/injection, schedule: Q01DX009 (ip), vehicle: other 99 % of control | dose: 400.0 mg/kg/injection, schedule: Q01DX009 (ip), vehicle: other 117 % of control

CCCCCCC([Se]C)C(O)(CCC)CCC (stereo not drawn)
inactive: dose: 25.0 mg/kg/injection, schedule: Q04DX003 (ip), vehicle: saline with Tween-80 100 % of control | dose: 50.0 mg/kg/injection, schedule: Q04DX003 (ip), vehicle: saline with Tween-80 100 % of control | [11] 91 % of control

CC(C(=O)c1ccc(Cl)cc1)C1=NC2NN(c3ccccc3)C(=O)C2=C1C(C)C(=O)c1ccc(Cl)cc1 (stereo not drawn)
inactive: dose: 60.0 mg/kg/injection, schedule: Q01DX005 (ip), vehicle: saline with Tween-80 99 % of control | dose: 120.0 mg/kg/injection, schedule: Q01DX005 (ip), vehicle: saline with Tween-80 101 % of control | dose: 240.0 mg/kg/injection, schedule: Q01DX005 (ip), vehicle: saline with Tween-80 100 % of control

Cc1ccc(NC2OC(CO)C(O)C2O)c([N+](=O)[O-])c1 (stereo not drawn)
inactive: dose: 100.0 mg/kg/injection, schedule: Q01DX001 (ip), vehicle: saline 108 % of control | dose: 200.0 mg/kg/injection, schedule: Q01DX001 (ip), vehicle: saline 97 % of control | dose: 400.0 mg/kg/injection, schedule: Q01DX001 (ip), vehicle: saline 99 % of control

O=C(CCSc1nc(-c2ccccc2)c(-c2ccccc2)o1)N1CCCCC1
inactive: [7] 101 % of control | [8] 101 % of control | dose: 200.0 mg/kg/injection, schedule: Q01DX009 (ip), vehicle: Klucel (hydroxypropylcellulose) (HPC) 117 % of control

O=C(O)c1c(Cl)n(Cc2cc(Cl)ccc2Cl)c2ccccc12
inactive: [9] 95 % of control | [12] 88 % of control

COc1cc2c(cc1OC)C(=O)C(Br)CC2 (stereo not drawn)
inactive: [10] 104 % of control | dose: 100.0 mg/kg/injection, schedule: Q01DX009 (ip), vehicle: saline with Tween-80 113 % of control

Cc1ccc(N2CCN(CCCC3(c4ccccc4)OCCO3)CC2C)cc1Cl (stereo not drawn)
inactive: dose: 50.0 mg/kg/injection, schedule: Q04DX003 (ip), vehicle: saline 106 % of control and 97 % of control | [11] 107 % of control | dose: 100.0 mg/kg/injection, schedule: Q04DX003 (ip), vehicle: saline 100 % of control and 95 % of control | dose: 200.0 mg/kg/injection, schedule: Q04DX003 (ip), vehicle: saline with Tween-80 117 % of control | dose: 200.0 mg/kg/injection, schedule: Q04DX003 (ip), vehicle: saline 107 % of control and 97 % of control | dose: 400.0 mg/kg/injection, schedule: Q04DX003 (ip), vehicle: saline 107 % of control and 97 % of control

O=C(NCCCCCCNC(=O)C1CCCN1C(=O)OCc1ccccc1)C1CCCN1C(=O)OCc1ccccc1 (stereo not drawn)
inactive: [9] 100 % of control | [12] 98 % of control | dose: 240.0 mg/kg/injection, schedule: Q01DX005 (ip), vehicle: Klucel (hydroxypropylcellulose) (HPC) 100 % of control

Clc1ccc(C[Se][Se]Cc2ccc(Cl)cc2)cc1
inactive: dose: 6.25 mg/kg/injection, schedule: Q01DX009 (ip), vehicle: Klucel (hydroxypropylcellulose) (HPC) 109 % of control | dose: 12.5 mg/kg/injection, schedule: Q01DX009 (ip), vehicle: Klucel (hydroxypropylcellulose) (HPC) 108 % of control | dose: 25.0 mg/kg/injection, schedule: Q01DX009 (ip), vehicle: Klucel (hydroxypropylcellulose) (HPC) 101 % of control
